According to article PMC7150766 (Viruses, 2020):

Assays:
[1] = system: LNCs and splenocytes from immunized mice; experiment: Proliferative response, whole cells from VP1 peptide-immunized mice; assay type: cell-based, A/J mice
[2] = system: splenocytes from CVB4-infected A/J mice; experiment: Proliferative response of splenocytes from CVB4-infected mice; assay type: cell-based; conditions: peptide 2 days, then 3[H] thymidine 16 h, p ≤ 0.01 for VP1 721–740, Figure 6a

Sequence: VNTFVHESLADVQA [RNase 43–56, bovine ribonuclease (RNase) 43–56, irrelevant control peptide]
- Proliferative response (in words) [1]: the cells did not react to control
- Proliferative response (in words) [2]: the cells did not respond to control
